Laboratory results: patent US10844077B2, “Thiazolyl-containing compounds for treating proliferative diseases” (Dana-Farber Cancer Institute, Inc., priority 2014, dated 2020)
“And” between values parts separate entries of the source, which are not always exact repeats. Identical values can stand only once.

What was measured:
[1] = tested on: ABL, ARG; experiment: KINATIV assay; assay type: cell-based; conditions: 1 μM, 90 minutes, BCWM.1 cells
Protocol: (§1) The cells were harvested and lysed. The lysates were directly labeled with an ATP-biotin probe. Bound kinases were identified and quantitated by ACTIVX as described in Patricelli et al., Biochemistry, 2007, 46(2): 350-358. The compounds were tested in duplicates against duplicate or quadruplicate control samples.

[2] = biological target: CASK (Homo sapiens (Human), UniProt O14936); experiment: KINATIV assay; assay type: cell-based; conditions: 1 μM, 90 minutes, BCWM.1 cells
Protocol: as §1

[3] = tested on: CDK11, CDK8; experiment: KINATIV assay; assay type: cell-based; conditions: 1 μM, 90 minutes, BCWM.1 cells
Protocol: as §1

[4] = biological target: CK2a1 (Homo sapiens (Human), UniProt P68400); experiment: KINATIV assay; assay type: cell-based; conditions: 1 μM, 90 minutes, BCWM.1 cells
Protocol: as §1

[5] = biological target: EphB2 (Homo sapiens (Human), UniProt P29323); experiment: KINATIV assay; assay type: cell-based; conditions: 1 μM, 90 minutes, BCWM.1 cells
Protocol: as §1

[6] = biological target: Erk1 (Homo sapiens (Human), UniProt P27361); experiment: KINATIV assay; assay type: cell-based; conditions: 1 μM, 90 minutes, BCWM.1 cells
Protocol: as §1

[7] = biological target: FES (Homo sapiens (Human), UniProt P07332); experiment: KINATIV assay; assay type: cell-based; conditions: 1 μM, 90 minutes, BCWM.1 cells
Protocol: as §1

[8] = biological target: HPK1 (Homo sapiens (Human), UniProt Q92918); experiment: KINATIV assay; assay type: cell-based; conditions: 1 μM, 90 minutes, BCWM.1 cells
Protocol: as §1

[9] = biological target: IKKa (Homo sapiens (Human), UniProt O15111); experiment: KINATIV assay; assay type: cell-based; conditions: 1 μM, 90 minutes, BCWM.1 cells
Protocol: as §1

[10] = biological target: IKKe (Homo sapiens (Human), UniProt Q14164); experiment: KINATIV assay; assay type: cell-based; conditions: 1 μM, 90 minutes, BCWM.1 cells
Protocol: as §1

[11] = tested on: KSR1, KSR2; experiment: KINATIV assay; assay type: cell-based; conditions: 1 μM, 90 minutes, BCWM.1 cells
Protocol: as §1

[12] = biological target: LCK (Homo sapiens (Human), UniProt P06239); experiment: KINATIV assay; assay type: cell-based; conditions: 1 μM, 90 minutes, BCWM.1 cells
Protocol: as §1

[13] = biological target: LKB1 (Homo sapiens (Human), UniProt Q15831); experiment: KINATIV assay; assay type: cell-based; conditions: 1 μM, 90 minutes, BCWM.1 cells
Protocol: as §1

[14] = biological target: MAP2K1 (Homo sapiens (Human), UniProt Q02750); experiment: KINATIV assay; assay type: cell-based; conditions: 1 μM, 90 minutes, BCWM.1 cells
Protocol: as §1

[15] = biological target: MAP3K4 (Homo sapiens (Human), UniProt Q9Y6R4); experiment: KINATIV assay; assay type: cell-based; conditions: 1 μM, 90 minutes, BCWM.1 cells
Protocol: as §1

[16] = tested on: MARK3, MARK4; experiment: KINATIV assay; assay type: cell-based; conditions: 1 μM, 90 minutes, BCWM.1 cells
Protocol: as §1

[17] = biological target: MARK4 (Homo sapiens (Human), UniProt Q96L34); experiment: KINATIV assay; assay type: cell-based; conditions: 1 μM, 90 minutes, BCWM.1 cells
Protocol: as §1

[18] = biological target: MAST3 (Homo sapiens (Human), UniProt O60307); experiment: KINATIV assay; assay type: cell-based; conditions: 1 μM, 90 minutes, BCWM.1 cells
Protocol: as §1

[19] = biological target: MELK (Homo sapiens (Human), UniProt Q14680); experiment: KINATIV assay; assay type: cell-based; conditions: 1 μM, 90 minutes, BCWM.1 cells
Protocol: as §1

[20] = biological target: MLK3 (Homo sapiens (Human), UniProt Q16584); experiment: KINATIV assay; assay type: cell-based; conditions: 1 μM, 90 minutes, BCWM.1 cells
Protocol: as §1

[21] = biological target: MSK1 domain1 (Homo sapiens (Human), UniProt O75582); experiment: KINATIV assay; assay type: cell-based; conditions: 1 μM, 90 minutes, BCWM.1 cells
Protocol: as §1

[22] = tested on: MST1, MST2; experiment: KINATIV assay; assay type: cell-based; conditions: 1 μM, 90 minutes, BCWM.1 cells
Protocol: as §1

[23] = biological target: NLK (Homo sapiens (Human), UniProt Q9UBE8); experiment: KINATIV assay; assay type: cell-based; conditions: 1 μM, 90 minutes, BCWM.1 cells
Protocol: as §1

[24] = biological target: PHKg2 (Homo sapiens (Human), UniProt P15735); experiment: KINATIV assay; assay type: cell-based; conditions: 1 μM, 90 minutes, BCWM.1 cells
Protocol: as §1

[25] = biological target: PIK3CD (Homo sapiens (Human), UniProt O00329); experiment: KINATIV assay; assay type: cell-based; conditions: 1 μM, 90 minutes, BCWM.1 cells
Protocol: as §1

[26] = tested on: PITSLRE; experiment: KINATIV assay; assay type: cell-based; conditions: 1 μM, 90 minutes, BCWM.1 cells
Protocol: as §1

[27] = biological target: PKN1 (Homo sapiens (Human), UniProt Q16512); experiment: KINATIV assay; assay type: cell-based; conditions: 1 μM, 90 minutes, BCWM.1 cells
Protocol: as §1

[28] = biological target: RSK3 domain1 (Homo sapiens (Human), UniProt Q15349); experiment: KINATIV assay; assay type: cell-based; conditions: 1 μM, 90 minutes, BCWM.1 cells
Protocol: as §1

[29] = biological target: TAK1 (Homo sapiens (Human), UniProt O43318); experiment: KINATIV assay; assay type: cell-based; conditions: 1 μM, 90 minutes, BCWM.1 cells
Protocol: as §1

[30] = biological target: TEC (Homo sapiens (Human), UniProt P42680); experiment: KINATIV assay; assay type: cell-based; conditions: 1 μM, 90 minutes, BCWM.1 cells
Protocol: as §1

[31] = tested on: Wnk1, Wnk2; experiment: KINATIV assay; assay type: cell-based; conditions: 1 μM, 90 minutes, BCWM.1 cells
Protocol: as §1

[32] = biological target: YSK1 (Homo sapiens (Human), UniProt O00506); experiment: KINATIV assay; assay type: cell-based; conditions: 1 μM, 90 minutes, BCWM.1 cells
Protocol: as §1

[33] = biological target: ZC2/TNIK (Homo sapiens (Human), UniProt Q9UKE5); experiment: KINATIV assay; assay type: cell-based; conditions: 1 μM, 90 minutes, BCWM.1 cells
Protocol: as §1

[34] = biological target: p70S6Kb (Homo sapiens (Human), UniProt Q9UBS0); experiment: KINATIV assay; assay type: cell-based; conditions: 1 μM, 90 minutes, BCWM.1 cells
Protocol: as §1

[35] = biological target: MAPKAPK3 (Homo sapiens (Human), UniProt Q16644)
Protocol: as §1

[36] = biological target: PCTAIRE1 (Homo sapiens (Human), UniProt Q00536)
Protocol: as §1

[37] = biological target: PCTAIRE2 (Homo sapiens (Human), UniProt Q00537)
Protocol: as §1

[38] = biological target: PRP4 (Homo sapiens (Human), UniProt Q13523)
Protocol: as §1

[39] = biological target: PRPK (Homo sapiens (Human), UniProt Q96S44)
Protocol: as §1

[40] = tested on: PCTAIRE1, PCTAIRE3; experiment: KINATIV assay; assay type: cell-based; conditions: 1 μM, 90 minutes, BCWM.1 cells
From the text: (§2) The cells were harvested and lysed.

[41] = tested on: PCTAIRE2, PCTAIRE3; experiment: KINATIV assay; assay type: cell-based; conditions: 1 μM, 90 minutes, BCWM.1 cells
From the text: as §2

[42] = tested on: AMPKa1, AMPKa2; experiment: KINATIV assay; assay type: cell-based; conditions: 1 μM, 90 minutes, BCWM.1 cells
Protocol: as §1

Sequence of TEC (P42680 whole entry): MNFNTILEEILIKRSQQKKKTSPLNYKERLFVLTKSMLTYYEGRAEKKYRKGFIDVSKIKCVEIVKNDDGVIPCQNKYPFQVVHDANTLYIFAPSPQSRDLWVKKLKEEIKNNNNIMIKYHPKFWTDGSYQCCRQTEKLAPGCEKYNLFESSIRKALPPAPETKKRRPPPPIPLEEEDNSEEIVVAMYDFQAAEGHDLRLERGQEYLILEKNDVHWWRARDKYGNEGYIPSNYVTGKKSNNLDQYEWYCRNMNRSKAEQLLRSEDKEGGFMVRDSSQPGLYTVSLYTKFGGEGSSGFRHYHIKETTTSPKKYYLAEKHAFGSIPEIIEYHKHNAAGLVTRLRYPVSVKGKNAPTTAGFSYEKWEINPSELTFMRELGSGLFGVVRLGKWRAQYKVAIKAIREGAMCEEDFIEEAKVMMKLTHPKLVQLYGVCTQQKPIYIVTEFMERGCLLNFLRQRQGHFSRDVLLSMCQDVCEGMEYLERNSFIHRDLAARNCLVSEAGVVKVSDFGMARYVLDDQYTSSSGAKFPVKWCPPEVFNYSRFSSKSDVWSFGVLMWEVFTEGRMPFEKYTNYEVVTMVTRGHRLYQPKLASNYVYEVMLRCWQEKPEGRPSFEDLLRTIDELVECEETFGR
Sequence of HPK1 (Q92918 whole entry): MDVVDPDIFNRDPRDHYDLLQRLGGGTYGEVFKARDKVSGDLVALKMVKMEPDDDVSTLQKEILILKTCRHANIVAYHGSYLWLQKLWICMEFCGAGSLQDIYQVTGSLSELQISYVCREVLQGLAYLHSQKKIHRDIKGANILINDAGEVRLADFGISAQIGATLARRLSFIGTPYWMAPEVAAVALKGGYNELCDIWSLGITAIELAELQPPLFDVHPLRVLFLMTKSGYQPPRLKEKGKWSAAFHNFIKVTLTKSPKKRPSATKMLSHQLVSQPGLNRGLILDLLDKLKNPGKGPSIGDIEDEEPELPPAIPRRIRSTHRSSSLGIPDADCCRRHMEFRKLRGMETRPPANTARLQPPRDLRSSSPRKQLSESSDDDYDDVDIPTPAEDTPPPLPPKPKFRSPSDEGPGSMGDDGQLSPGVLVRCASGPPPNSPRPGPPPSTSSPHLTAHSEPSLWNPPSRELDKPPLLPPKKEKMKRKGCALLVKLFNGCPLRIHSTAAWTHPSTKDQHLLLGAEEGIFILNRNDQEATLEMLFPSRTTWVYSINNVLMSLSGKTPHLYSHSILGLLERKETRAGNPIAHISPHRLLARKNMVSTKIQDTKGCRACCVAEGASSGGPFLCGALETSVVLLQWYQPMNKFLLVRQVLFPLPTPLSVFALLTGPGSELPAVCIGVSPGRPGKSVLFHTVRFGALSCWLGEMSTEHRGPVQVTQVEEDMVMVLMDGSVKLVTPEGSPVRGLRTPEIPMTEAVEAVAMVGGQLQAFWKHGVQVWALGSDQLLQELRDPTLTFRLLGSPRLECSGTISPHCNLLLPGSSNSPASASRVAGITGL
Sequence of PRPK (Q96S44 whole entry, looked up): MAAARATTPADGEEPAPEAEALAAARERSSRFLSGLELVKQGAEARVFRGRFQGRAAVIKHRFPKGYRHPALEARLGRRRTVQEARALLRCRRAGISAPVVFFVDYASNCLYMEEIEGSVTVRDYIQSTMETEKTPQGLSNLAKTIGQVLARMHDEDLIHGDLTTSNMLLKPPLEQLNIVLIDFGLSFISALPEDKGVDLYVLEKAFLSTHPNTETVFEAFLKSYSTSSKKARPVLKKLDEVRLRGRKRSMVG
Sequence of PKN1 (Q16512 whole entry): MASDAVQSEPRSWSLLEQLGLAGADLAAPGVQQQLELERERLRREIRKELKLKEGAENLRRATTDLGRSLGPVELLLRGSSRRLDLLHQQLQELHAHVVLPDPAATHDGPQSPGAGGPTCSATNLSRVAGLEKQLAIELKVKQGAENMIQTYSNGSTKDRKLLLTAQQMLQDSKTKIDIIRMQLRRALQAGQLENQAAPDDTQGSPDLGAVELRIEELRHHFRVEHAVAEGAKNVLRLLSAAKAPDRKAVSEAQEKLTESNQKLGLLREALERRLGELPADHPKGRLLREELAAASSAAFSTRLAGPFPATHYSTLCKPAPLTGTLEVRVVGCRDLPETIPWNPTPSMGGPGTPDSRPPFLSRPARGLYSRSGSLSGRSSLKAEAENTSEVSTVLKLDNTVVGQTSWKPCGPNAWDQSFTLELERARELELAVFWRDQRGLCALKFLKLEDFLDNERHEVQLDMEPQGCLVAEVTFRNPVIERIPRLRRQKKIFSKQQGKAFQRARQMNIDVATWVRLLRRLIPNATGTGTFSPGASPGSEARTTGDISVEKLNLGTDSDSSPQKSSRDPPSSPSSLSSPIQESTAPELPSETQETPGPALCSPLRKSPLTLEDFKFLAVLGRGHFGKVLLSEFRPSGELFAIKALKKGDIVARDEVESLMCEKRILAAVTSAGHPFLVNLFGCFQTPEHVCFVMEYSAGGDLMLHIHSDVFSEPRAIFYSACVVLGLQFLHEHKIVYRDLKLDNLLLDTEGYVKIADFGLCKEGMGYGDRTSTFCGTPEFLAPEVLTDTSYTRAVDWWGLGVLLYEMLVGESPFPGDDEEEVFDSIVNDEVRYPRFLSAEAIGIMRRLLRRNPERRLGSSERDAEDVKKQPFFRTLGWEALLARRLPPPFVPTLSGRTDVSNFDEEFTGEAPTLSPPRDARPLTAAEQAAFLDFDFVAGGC
Sequence of TAK1 (O43318 whole entry): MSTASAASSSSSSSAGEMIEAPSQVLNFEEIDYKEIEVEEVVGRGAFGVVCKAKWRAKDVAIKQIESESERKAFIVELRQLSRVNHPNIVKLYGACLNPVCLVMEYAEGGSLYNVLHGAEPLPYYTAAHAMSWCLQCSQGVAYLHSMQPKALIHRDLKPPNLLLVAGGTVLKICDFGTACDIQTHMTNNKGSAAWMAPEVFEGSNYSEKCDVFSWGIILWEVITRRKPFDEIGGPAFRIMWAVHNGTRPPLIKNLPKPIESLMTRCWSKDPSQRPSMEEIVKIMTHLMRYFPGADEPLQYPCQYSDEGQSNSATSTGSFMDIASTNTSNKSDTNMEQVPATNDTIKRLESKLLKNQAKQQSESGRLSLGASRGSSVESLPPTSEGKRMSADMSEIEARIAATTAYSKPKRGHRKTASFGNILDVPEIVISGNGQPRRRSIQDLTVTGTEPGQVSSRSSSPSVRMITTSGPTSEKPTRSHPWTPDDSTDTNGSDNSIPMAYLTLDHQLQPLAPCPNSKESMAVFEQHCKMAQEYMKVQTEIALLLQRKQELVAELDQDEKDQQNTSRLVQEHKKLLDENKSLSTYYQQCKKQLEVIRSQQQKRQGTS
Sequence of LKB1 (Q15831 1-430): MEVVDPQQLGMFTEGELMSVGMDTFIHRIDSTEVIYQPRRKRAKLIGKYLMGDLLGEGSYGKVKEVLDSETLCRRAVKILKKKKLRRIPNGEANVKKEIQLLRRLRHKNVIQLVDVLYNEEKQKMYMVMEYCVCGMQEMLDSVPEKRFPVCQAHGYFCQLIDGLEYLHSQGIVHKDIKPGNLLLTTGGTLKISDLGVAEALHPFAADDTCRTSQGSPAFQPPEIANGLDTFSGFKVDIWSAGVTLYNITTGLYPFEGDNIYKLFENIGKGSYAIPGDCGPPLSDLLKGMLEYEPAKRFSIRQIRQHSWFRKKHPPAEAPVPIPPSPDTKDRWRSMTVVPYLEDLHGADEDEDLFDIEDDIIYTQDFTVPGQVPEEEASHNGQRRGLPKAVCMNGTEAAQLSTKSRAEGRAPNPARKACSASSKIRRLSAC
Sequence of LKB1 (Q7RTN6 whole entry partner): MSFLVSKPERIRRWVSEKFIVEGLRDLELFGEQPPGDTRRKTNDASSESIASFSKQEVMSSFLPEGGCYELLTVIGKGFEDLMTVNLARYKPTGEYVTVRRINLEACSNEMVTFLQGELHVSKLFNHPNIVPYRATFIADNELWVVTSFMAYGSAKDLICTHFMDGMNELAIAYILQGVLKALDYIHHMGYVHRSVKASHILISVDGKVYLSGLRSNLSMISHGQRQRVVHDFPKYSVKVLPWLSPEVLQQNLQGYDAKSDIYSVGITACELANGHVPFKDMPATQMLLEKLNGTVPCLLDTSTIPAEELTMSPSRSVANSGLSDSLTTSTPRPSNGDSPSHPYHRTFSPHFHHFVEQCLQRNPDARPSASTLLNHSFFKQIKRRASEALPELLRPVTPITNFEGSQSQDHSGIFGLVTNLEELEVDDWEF
Sequence of LKB1 (Q9Y376 whole entry partner): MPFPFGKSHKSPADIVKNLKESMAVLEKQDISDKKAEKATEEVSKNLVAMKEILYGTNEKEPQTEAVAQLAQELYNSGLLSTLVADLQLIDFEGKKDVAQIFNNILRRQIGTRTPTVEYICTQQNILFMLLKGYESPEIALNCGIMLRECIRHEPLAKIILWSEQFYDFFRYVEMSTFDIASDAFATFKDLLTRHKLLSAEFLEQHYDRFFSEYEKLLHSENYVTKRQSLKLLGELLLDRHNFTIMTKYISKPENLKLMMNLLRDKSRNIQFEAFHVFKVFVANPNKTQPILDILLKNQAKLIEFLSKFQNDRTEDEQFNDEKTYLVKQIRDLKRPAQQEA
Sequence of MAPKAPK3 (Q16644 whole entry, looked up): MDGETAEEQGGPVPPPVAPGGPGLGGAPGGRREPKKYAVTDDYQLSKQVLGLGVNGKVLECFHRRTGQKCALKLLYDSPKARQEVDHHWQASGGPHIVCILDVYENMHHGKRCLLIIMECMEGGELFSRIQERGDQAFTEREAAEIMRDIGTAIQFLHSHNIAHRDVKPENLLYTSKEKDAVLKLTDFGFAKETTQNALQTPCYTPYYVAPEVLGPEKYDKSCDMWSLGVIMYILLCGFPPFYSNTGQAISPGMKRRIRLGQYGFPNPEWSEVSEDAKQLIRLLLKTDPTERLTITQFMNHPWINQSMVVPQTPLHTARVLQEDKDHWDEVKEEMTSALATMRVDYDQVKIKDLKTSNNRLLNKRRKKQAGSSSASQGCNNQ

For C=CC(=O)N1CCC(CNc2nccc(Nc3ncc(C(=O)Nc4c(C)cccc4C)s3)n2)C1 (racemic) [Example I-8], the “% change of MS signal compared to control sample” value (from here on “% change of MS signal”) [1] was >90% and >97%, the “% change of MS signal” value [2] was 43.0% and the “% change of MS signal” value [3] was 19.6%. For the same molecule, the “% change of MS signal” value [4] was 13.9%, the “% change of MS signal” value [5] was over 90% and the “% change of MS signal” value [6] was −19.7%. For the same molecule, the “% change of MS signal” value [7] was −13.3%, the “% change of MS signal” value [8] was 32.8% and 24.6% and the “% change of MS signal” value [9] was −4.2%. For the same molecule, the “% change of MS signal” value [10] was −5.9%, the “% change of MS signal” value [11] was −8.8% and the “% change of MS signal” value [12] was 94.8%. The “% change of MS signal” value [13] was −1.8%, the “% change of MS signal” value [14] was 1.0% and the “% change of MS signal” value [15] was 12.8%. For the same molecule, the “% change of MS signal” value [16] was 5.8%, the “% change of MS signal” value [17] was −0.4% and 1.6% and the “% change of MS signal” value [18] was −8.3%. For the same molecule, the “% change of MS signal” value [19] was −10.0%, the “% change of MS signal” value [20] was 11.7% and the “% change of MS signal” value [21] was −45.5%. For the same molecule, the “% change of MS signal” value [22] was 8.7%, the “% change of MS signal” value [23] was 6.1% and the “% change of MS signal” value [24] was 6.4%. For the same molecule, the “% change of MS signal” value [25] was −16.2%, the “% change of MS signal” value [26] was −16.1% and the “% change of MS signal” value [27] was 13.7%. The “% change of MS signal” value [28] was −62.5%, the “% change of MS signal” value [29] was 9.7% and the “% change of MS signal” value [30] was 79.5% and 71.1%. For the same molecule, the “% change of MS signal” value [31] was −16.4%, the “% change of MS signal” value [32] was −29.2% and the “% change of MS signal” value [33] was 19.0%. The “% change of MS signal” value [34] was −22.7%, the “% change of MS signal” value [35] was 0.5% and the “% change of MS signal” value [36] was 32.9%. The “% change of MS signal” value [37] was 8.5%, the “% change of MS signal” value [38] was −10.7% and the “% change of MS signal” value [39] was 3.7%. The “% change of MS signal” value [40] was 19.8% and the “% change of MS signal” value [41] was 28.8%.
With C=CC(=O)N1CC[C@@H](Nc2nccc(Nc3ncc(C(=O)Nc4c(C)cccc4C)s3)n2)C1 [Example I-4] the “% change of MS signal” value [1] was >90% and 91.7%, the “% change of MS signal” value [42] was −40.3% and the “% change of MS signal” value [2] was 23.2%. The “% change of MS signal” value [3] was −36.1%, the “% change of MS signal” value [4] was 24.6% and the “% change of MS signal” value [5] was over 90%. The “% change of MS signal” value [6] was −10.9%, the “% change of MS signal” value [7] was −15.6% and the “% change of MS signal” value [8] was 26.6%. For the same molecule, the “% change of MS signal” value [9] was 6.4%, the “% change of MS signal” value [10] was 2.2% and the “% change of MS signal” value [11] was −8.9%. For the same molecule, the “% change of MS signal” value [12] was 96.1%, the “% change of MS signal” value [13] was −4.5% and the “% change of MS signal” value [14] was −31.6%. For the same molecule, the “% change of MS signal” value [15] was −20.5%, the “% change of MS signal” value [16] was 19.1% and the “% change of MS signal” value [18] was 2.0%. For the same molecule, the “% change of MS signal” value [19] was −11.7%, the “% change of MS signal” value [20] was −27.2% and the “% change of MS signal” value [21] was −15.8%. The “% change of MS signal” value [22] was 3.8%, the “% change of MS signal” value [23] was 6.7% and the “% change of MS signal” value [24] was −15.6%. For the same molecule, the “% change of MS signal” value [25] was −14.5%, the “% change of MS signal” value [26] was −13.6% and the “% change of MS signal” value [27] was 17.4%. For the same molecule, the “% change of MS signal” value [28] was −26.9%, the “% change of MS signal” value [29] was 27.8% and the “% change of MS signal” value [30] was 68.7% and 73.7%. For the same molecule, the “% change of MS signal” value [31] was 7.8%, the “% change of MS signal” value [32] was −58.5% and the “% change of MS signal” value [33] was 48.8%. For the same molecule, the “% change of MS signal” value [34] was −72.4%, the “% change of MS signal” value [35] was 7.0% and the “% change of MS signal” value [36] was 19.0%. The “% change of MS signal” value [37] was 13.4%, the “% change of MS signal” value [38] was 6.9% and the “% change of MS signal” value [39] was −13.6%. The “% change of MS signal” value [40] was 12.7% and the “% change of MS signal” value [41] was 27.9%.
